# Test system: lung autotumor
# Experiment: Inhibition of mouse lung autotumor induced by ethylnitrosourea (Test Example 5)
# Type: in vivo, DDY mice
# Description: 100 mg/kg of ethylnitrosourea was given intraperitoneally to DDY mice 3 to 4 days prior to delivery. After delivery, mice born with lung autotumor were used as the test animals. One group consisted of 10 mice.
# Four weeks after birth, a given amount of CNUA was administered in two ways, i.e., intravenous administration and peroral administration at predetermined times. Nine weeks after, the area of the tumor of each mouse was measued and the inhibition rate (%) was calculated.
structure (smiles),measurement,setting,value
"O=NN(CCCl)C(=O)N[C@@H]1[C@H](O)[C@@H](CO)OC(O)[C@@H]1O (stereo partly drawn) [CNUA, 3-[3-(2-chloroethyl)-3-nitrosoureido]-3-deoxy-D-allose]",Inhibition rate,"iv, 5 weeks after birth, 40 × 1 mg/kg",37.2%
same,Area of tumor (± S.E.),"iv, 5 weeks after birth, 40 × 1 mg/kg, p < 0.05, control 1.45 ± 0.30",0.91 ± 0.81 mm^2
same,Inhibition rate,"iv, 5.6 weeks after birth, 40 × 2 mg/kg",49.2%
same,Area of tumor (± S.E.),"iv, 5.6 weeks after birth, 40 × 2 mg/kg, p < 0.01, control 1.45 ± 0.30",0.75 ± 0.22 mm^2
same,Inhibition rate,"iv, 5.7 weeks after birth, 40 × 2 mg/kg",46.5%
same,Area of tumor (± S.E.),"iv, 5.7 weeks after birth, 40 × 2 mg/kg, p < 0.01, control 1.45 ± 0.30",0.79 ± 0.31 mm^2
same,Inhibition rate,"po, 5,6,7,8 weeks after birth, 133 × 4 mg/kg",44.7%
same,Area of tumor (± S.E.),"po, 5,6,7,8 weeks after birth, 133 × 4 mg/kg, p < 0.01, control 1.41 ± 0.44",0.78 ± 0.22 mm^2
same,Inhibition rate,"po, 5,6,7,8 weeks after birth, 200 × 4 mg/kg",44.7%
same,Area of tumor (± S.E.),"po, 5,6,7,8 weeks after birth, 200 × 4 mg/kg, p < 0.01, control 1.41 ± 0.44",0.78 ± 0.16 mm^2
same,Inhibition rate,"po, 5,6,7,8 weeks after birth, 267 × 4 mg/kg",61.0%
same,Area of tumor (± S.E.),"po, 5,6,7,8 weeks after birth, 267 × 4 mg/kg, p < 0.01, control 1.41 ± 0.44",0.55 ± 0.18 mm^2
same,Inhibition rate,"po, 5,6,7,8 weeks after birth, 333 × 4 mg/kg",53.2%
same,Area of tumor (± S.E.),"po, 5,6,7,8 weeks after birth, 333 × 4 mg/kg, p < 0.01, control 1.41 ± 0.44",0.66 ± 0.14 mm^2

# Reference: patent US4349546A, “D-Allose derivative and preparation method therefor” (Wakamoto Pharmaceutical Co., Ltd., priority 1980, dated 1982)
